Results from paper PMC6814738, “Bacterial MgrB peptide activates chemoreceptor Fpr3 in mouse accessory olfactory system and drives avoidance behaviour” (Nature Communications, 2019).
“Also recorded” adds a separate entry of the source. Peptide text beside a SMILES is read from it. * marks the point of attachment. For = O=C*

How the values were obtained:
Fpr3-expressing VSNs = assay: Egr1 induction in Fpr3-positive VSNs after voluntary peptide uptake in freely behaving mice, RNAscope (Fig. 7d, f); assay type: in vivo, mouse; conditions: male B6 mice
Description: For each mouse, serial coronal VNO cryosections (12 µm) were collected as two alternate sets, each representing every second section of the whole VNO. One set was subjected to RNAscope in situ hybridisation using the RNAscope Fluorescent Multiplex Detection Kit (ACD Bio-Techne) and specific probes for Fpr3 and LacZ according to the manufacturer’s protocol. Sections were incubated in 1 x citrate buffer pH 6.0 (DAKO, Germany) for 5 min at 98 °C in a coplin jar, rinsed twice in distilled water, dehydrated in 100% ethanol, and air dried prior to protease III treatment for 30 min at 40 °C. […] Following hybridisation (2 h, 40 °C), sections were rinsed twice for 2 min in wash buffer (ACD Bio-Techne), and sequentially treated with amplification solutions at 40 °C (30 min Amp1-FL, 15 min Amp2-FL, 30 min Amp3-FL) and fluorescence reagent (15 min, 40 °C Amp4-altC), with intermitting washing steps at room temperature between reagents. Cell nuclei were stained with DAPI solution (ACD Bio-Techne) for 1 min, and tissue sections were mounted with DAKO fluorescence medium and stored for 12 h at 4 °C. Fluorescence images of the RNAscope results were acquired from each section using a Zeiss LSM 880 confocal microscope containing a 32-channel GaAsP-PMT and 2-channel PMT QUASAR detector. […]

mouse Fpr3 = conditions: cited from earlier work
Description: We estimate the fraction of knobs responding to f-MKKFRW as ~0.15%, which is similar to the fraction of cells in the VNE that express Fpr3[30]. Strikingly, the sensitivity and sequence-selectivity profile of these responses was nearly identical to the results that we obtained for heterologously expressed Fpr3. The detection threshold of native VSNs for f-MKKFRW was ≤0.1 µM (Fig. 4f), virtually the same as for Fpr3-expres ... || Given the importance of the olfactory system in a variety of behavioural avoidance and defence mechanisms[14],[62],[63], we reasoned that in vivo detection of MgrB peptide may evoke an avoidance reaction in mice. We devised a behavioural assay[14],[60] in order to determine whether direct nasal contact with MgrB peptide evokes unconditioned, innate avoidance (Fig. 8a and Methods). […] (Fig ... || We used custom-made peptides with a length of 6–21 amino acids to screen for agonists. Sequences of fMet peptides were designed according to motifs present at the N-termini of 15,125 specific bacterial proteins as annotated in UniProt. Peptides were chemically synthesised, purified, and verified by mass spectroscopy (MALDI-TOF) by commercial suppliers. Purity of all peptides was >95%. Source, sequence and purity of each peptide are listed in Supplementary Data 1. Lyophilised peptides were routinely dissolved in the Ca^2+ imaging assay buffer C1 (130 mM NaCl, 10 mM HEPES, 5 mM KCl, 2 mM CaCl2, ...

Fpr1 = conditions: cited from earlier work
Description: (§1) We estimate the fraction of knobs responding to f-MKKFRW as ~0.15%, which is similar to the fraction of cells in the VNE that express Fpr3[30]. Strikingly, the sensitivity and sequence-selectivity profile of these responses was nearly identical to the results that we obtained for heterologously expressed Fpr3. The detection threshold of native VSNs for f-MKKFRW was ≤0.1 µM (Fig. 4f), virtually the same as for Fpr3-expres ...

Fpr2 = conditions: cited from earlier work
Description: as §1

| Compound | fraction of Fpr3-positive VSNs co-localised with Egr1 (Fpr3-expressing VSNs; 100 µM in 50% FEU, mean ± s.d.) | Egr1-positive / Fpr3-positive VSNs (Fpr3-expressing VSNs; 100 µM) | activation of heterologously expressed Fpr3, in words (mouse Fpr3) | activation of Fpr1, in words (Fpr1) | activation of Fpr2, in words (Fpr2) |
| --- | --- | --- | --- | --- | --- |
| CSCC[C@H](NC=O)C(=O)N[C@@H](CCCCN)C(=O)N[C@@H](CCCCN)C(=O)N[C@@H](Cc1ccccc1)C(=O)N[C@@H](CCCNC(=N)N)C(=O)N[C@@H](Cc1c[nH]c2ccccc12)C(=O)O [f-MKKFRW] (For-MKKFRW-OH) | 0.46 ± 0.12 | 77/160 | – | – | – |
| f-MGFFIS [bacterial signal peptide fragment] | – | – | not Fpr3; also recorded: failed to activate heterologously expressed Fpr3 | activates Fpr1 | activates Fpr1 and Fpr2 |
